Source: ChEMBL document CHEMBL5370672, “Discovery of Orally Bioavailable Phthalazinone Analogues as an ENPP1 Inhibitor for STING-Mediated Cancer Immunotherapy” (J Med Chem, 2023)
Calls of active or inactive are those of the source. No cut-off for these calls is given here.

Columns and labels:
[1] = target: T1, Ectonucleotide pyrophosphatase/phosphodiesterase family member 1 (Homo sapiens, UniProt P22413); test: Inhibition of recombinant human ENPP1 using cGAMP as substrate assessed as inhibition of cGAMP hydrolysis preincubated for 5 to 10 mins followed by substrate addition and measured after 90 mins by AMP-Glo reagent based luminescence plate reader analysis
T1 sequence (P22413 whole entry): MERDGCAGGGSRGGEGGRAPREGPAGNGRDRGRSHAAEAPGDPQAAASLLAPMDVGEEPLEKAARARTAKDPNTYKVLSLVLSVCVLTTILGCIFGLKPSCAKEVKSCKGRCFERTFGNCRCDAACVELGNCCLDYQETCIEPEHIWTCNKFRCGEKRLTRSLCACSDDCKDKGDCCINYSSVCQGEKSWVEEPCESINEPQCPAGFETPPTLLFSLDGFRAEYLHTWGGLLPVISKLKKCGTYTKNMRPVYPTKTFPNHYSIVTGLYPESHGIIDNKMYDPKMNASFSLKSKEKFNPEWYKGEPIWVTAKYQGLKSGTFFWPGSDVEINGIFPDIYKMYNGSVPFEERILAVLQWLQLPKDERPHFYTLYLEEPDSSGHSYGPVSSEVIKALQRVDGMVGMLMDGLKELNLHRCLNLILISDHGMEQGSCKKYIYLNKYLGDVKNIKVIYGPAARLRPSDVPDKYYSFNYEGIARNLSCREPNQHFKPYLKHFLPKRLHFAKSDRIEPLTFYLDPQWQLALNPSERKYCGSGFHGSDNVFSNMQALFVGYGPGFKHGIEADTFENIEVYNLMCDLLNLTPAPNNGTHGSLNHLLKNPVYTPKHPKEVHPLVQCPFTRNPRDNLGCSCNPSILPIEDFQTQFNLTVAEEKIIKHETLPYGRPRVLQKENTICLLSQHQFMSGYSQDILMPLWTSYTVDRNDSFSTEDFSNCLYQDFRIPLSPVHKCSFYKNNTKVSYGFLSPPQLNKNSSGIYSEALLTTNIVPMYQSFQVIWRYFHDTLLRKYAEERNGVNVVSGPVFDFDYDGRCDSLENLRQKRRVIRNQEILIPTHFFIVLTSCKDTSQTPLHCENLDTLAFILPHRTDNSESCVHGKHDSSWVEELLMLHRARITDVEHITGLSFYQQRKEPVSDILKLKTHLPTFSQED

[2] = target: Stimulator of interferon genes protein (Homo sapiens) (UniProt Q86WV6); test: (§1) Activation of STING-mediated immune response in human HCT-116 cells transfected with ISRE reporter assessed as increase in cGAMP-induced ISRE activation by measuring fold change at 25 to 100 uM preincubated with compound for 1 hrs followed by cGAMP addition and measured after 48 hrs by luciferase reporter gene assay; type: cell-based; conditions: filed as activator, dose 25-100 µM, time 49.0 hrs
[3] = target: Stimulator of interferon genes protein (Homo sapiens) (UniProt Q86WV6); test: as §1, with “at” for “at 25 to”; type: cell-based; conditions: filed as activator, time 49.0 hrs
[4] = target: Stimulator of interferon genes protein (Homo sapiens) (UniProt Q86WV6); test: Activation of STING-mediated immune response in human HCT-116 cells transfected with ISRE reporter assessed as increase in cGAMP-induced ISRE activation at 25 to 100 uM preincubated with compound for 1 hrs followed by cGAMP addition and measured after 48 hrs by luciferase reporter gene assay; type: cell-based; conditions: filed as activator, dose 25-100 µM, time 49.0 hrs

Chain of Stimulator of interferon genes protein (Homo sapiens) (Q86WV6 whole entry): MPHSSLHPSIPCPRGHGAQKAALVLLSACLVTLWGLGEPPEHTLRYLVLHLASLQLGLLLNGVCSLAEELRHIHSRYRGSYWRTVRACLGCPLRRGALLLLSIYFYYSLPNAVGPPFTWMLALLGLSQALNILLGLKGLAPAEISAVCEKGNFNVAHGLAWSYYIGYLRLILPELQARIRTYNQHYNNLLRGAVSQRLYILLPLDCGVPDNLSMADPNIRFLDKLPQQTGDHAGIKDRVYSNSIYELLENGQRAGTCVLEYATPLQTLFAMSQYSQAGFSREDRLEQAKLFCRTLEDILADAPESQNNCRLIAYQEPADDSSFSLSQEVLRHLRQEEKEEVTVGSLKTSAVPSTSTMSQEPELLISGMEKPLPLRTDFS

| Structure (SMILES) | IC50 [1] | fold change (FC) [2] | fold change (FC) [3] | Activity [4] |
| --- | --- | --- | --- | --- |
| COc1cc2c(Cc3ccc4c(c3)CCN4S(N)(=O)=O)n[nH]c(=O)c2cc1OC | 0.21 µM | 1.53 | – | – |
| NS(=O)(=O)NCc1ccc(-c2nn(-c3ccccc3)c(=O)c3ccccc23)cc1 | 1.14 µM | – | – | – |
| Cn1nc(-c2ccc(CNS(N)(=O)=O)cc2)c2ccccc2c1=O | 0.286 µM | – | 1.75 | – |
| COc1ccc2c(=O)n(C)nc(-c3ccc(CNS(N)(=O)=O)cc3)c2c1 | 1.31 µM | – | – | – |
| NS(=O)(=O)NCc1ccc(-c2n[nH]c(=O)c3ccccc23)cc1C(F)(F)F | 0.377 µM | – | – | – |
| NS(=O)(=O)NCC1CCN(c2n[nH]c(=O)c3ccccc23)CC1 | 0.441 µM | – | – | – |
| COc1cc2c(Cc3ccc(NS(N)(=O)=O)cc3)n[nH]c(=O)c2cc1OC | 0.069 µM | 2.49 | – | – |
| COc1ccc2c(-c3ccc(CNS(N)(=O)=O)cc3)n[nH]c(=O)c2c1 | 0.59 µM | – | – | – |
| NS(=O)(=O)Nc1ccc(Cc2n[nH]c(=O)c3ccccc23)cc1F | 0.298 µM | – | – | Active |
| NS(=O)(=O)Nc1ccc(Cc2n[nH]c(=O)c3ccccc23)cc1C(F)(F)F | 2.19 µM | – | – | – |
| NS(=O)(=O)Nc1ccc(Cc2n[nH]c(=O)c3ccccc23)c(F)c1 | 0.273 µM | – | – | Active |
| COc1cc2c(-c3ccc(CNS(N)(=O)=O)cc3)n[nH]c(=O)c2cc1OC | 0.037 µM | – | 1.07 | – |
| COc1cc2c(Cc3ccc(N(C)S(N)(=O)=O)cc3)n[nH]c(=O)c2cc1OC | 0.166 µM | – | – | Active |
| NS(=O)(=O)NCc1ccc(-c2n[nH]c(=O)c3ccccc23)cc1 | 0.139 µM | – | 1.71 | – |
| NS(=O)(=O)Nc1ccc(Cc2n[nH]c(=O)c3ccccc23)c(C(F)(F)F)c1 | 1.36 µM | – | – | – |
| NS(=O)(=O)Nc1ccc(Cc2n[nH]c(=O)c3ccccc23)cc1 | 0.039 µM | 1.85 | – | – |
| COc1cc2c(N3CCC(CNS(N)(=O)=O)CC3)n[nH]c(=O)c2cc1OC | 0.395 µM | – | – | – |
| Cn1nc(N2CCC(CNS(N)(=O)=O)CC2)c2ccccc2c1=O | 2.45 µM | – | – | – |
| COc1cc2c(Cc3ccc(NS(N)(=O)=O)cc3)nn(C)c(=O)c2cc1OC | 0.118 µM | – | – | Active |
| Cn1nc(-c2ccc3c(c2)CCN(S(N)(=O)=O)C3)c2ccccc2c1=O | 2.22 µM | – | – | – |
| COc1cc2c(Cc3ccc(N(C)S(N)(=O)=O)cc3)nn(C)c(=O)c2cc1OC | 0.247 µM | – | – | Active |
| NS(=O)(=O)NCc1ccc(-c2nn(Cc3ccccc3)c(=O)c3ccccc23)cc1 | 1.45 µM | – | – | – |
| COc1cc2c(Cc3ccc4c(c3)CCN4S(N)(=O)=O)nn(C)c(=O)c2cc1OC | 0.207 µM | 3.23 | – | – |
| Cn1nc(-c2ccc(CCS(N)(=O)=O)cc2)c2ccccc2c1=O | 1.81 µM | – | – | – |
| COc1cc2c(N3CCC(CNS(N)(=O)=O)CC3)nn(C)c(=O)c2cc1OC | 0.454 µM | – | – | – |
| CN(c1ccc(Cc2n[nH]c(=O)c3ccccc23)cc1)S(N)(=O)=O | 1.14 µM | – | – | – |
